Assay: Acute toxicity (LD50) in mice after intravenous injection into the tail vein, survival after 7 days
Details: in vivo, mouse, i.v. tail vein, pH 7-7.5, survival after 7 days
Method: Mice weighing 18-22 g were given varying quantities of the compound as a […] aqueous solution per kg, adjusted to pH 7-7.5 by intravenous injection into the tail vein. After 7 days, the survival rate of the mice was determined and, from this value, the LD50 in mmol/kg of animal was calculated in the usual way.
(J. Comput. Assist. Tomogr. 7, 1983, 184.)

| Structure (SMILES) | LD50 at 168 h [µmol/kg] |
| --- | --- |
| CC1(C)CC(C(=O)O)C(C)(C)N1[O] (centres unmarked) [Compound 2, 2,2,5,5-Tetramethylpyrrolidine-1-oxyl-3-carboxylic Acid, reference compound] | 10000 |
| CC1(C)CC(NC(=O)CCC(=O)O)CC(C)(C)N1[O] [Compound 1, Succinic Acid (2,2,6,6-tetramethyl-1-oxylpiperidin-4-yl)-amide, reference compound] | 10000 |
| CC1(C)C=C(C(=O)NCC(O)CO)C(C)(C)N1[O] (centres unmarked) [Compound 4, 2,2,5,5-Tetramethyl-3-pyrroline-1-oxyl-3-carboxylic Acid (2,3-Dihydroxypropyl)amide] | 15000 |
| CC1(C)CC(C(=O)NC(CO)C(O)CO)C(C)(C)N1[O] (centres unmarked) [Compound 5, 2,2,5,5-Tetramethylpyrrolidine-1-oxyl-3-carboxylic Acid (1,3,4-Trihydroxybut-2-yl)amide] | 25000 |
| CC1(C)C=C(C(=O)NC(CO)C(O)CO)C(C)(C)N1[O] (centres unmarked) [Compound 3, 2,2,5,5-Tetramethyl-3-pyrroline-1-oxyl-3-carboxylic Acid (1,3,4-Trihydroxybut-2-yl)amide] | 20000 |
